Source: the METLIN SMRT retention time set (Domingo-Almenara et al. 2019)

Experiment: gradient 5% acetonitrile 3 min, to 50% in 2 min, to 85% in 15 min, held 3 min, 100 µL/min
Conditions: column: Zorbax Extend-C18 2.1 x 50 mm; eluents: water / acetonitrile, 0.1% formic acid
Method in brief: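 Pure standards were analyzed in mixtures of ~100 molecules using HPLC coupled to a quadrupole time-of-flight mass spectrometer, in both positive and negative ionization mode. Separation used a Zorbax Extend-C18 column (2.1 × 50 mm, 1.8 μm) at 100 μL/min, with water and acetonitrile each containing 0.1% formic acid. Dead and dwell volumes were 40 μL and 900 μL, and data were collected over 3 months. Retention time was read from computationally picked adduct peaks, each inspected manually.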

`CCC(C)C(=O)NCCc1c[nH]c2cc(OC)ccc12` (centres undefined) gave an RP-LC retention time of 728 s.
For `CCN1C=C(C(=O)OCc2ccccc2C)C(C)=NS1(=O)=O`, the RP-LC retention time was 1030 s.
`O=C(O)CCC1(c2ccccc2)NC(=O)NC1=O` (centres undefined) gave an RP-LC retention time of 651 s.
Work on `COc1ccc(-c2cc(C(=O)N3CCCC3c3cc(C)on3)on2)cc1` (centres undefined) yielded an RP-LC retention time of 865 s.
`CN(C)C(=O)c1n[nH]c2c1CN(C(=O)c1ccc(F)cc1)CC2` gave an RP-LC retention time of 622 s.
In the case of `COC(=O)Nc1nc2ccc(S(=O)c3ccccc3)cc2[nH]1` (centres undefined), the RP-LC retention time was 658 s.
In the case of `COc1cc(C)c(C)cc1S(=O)(=O)Nc1ccc2c(c1)C(=O)NCCO2`, the RP-LC retention time was 678 s.
For `O=C1CC(c2noc(CCCc3ccccc3)n2)CN1c1ccc(F)c(Cl)c1` (centres undefined), the RP-LC retention time was 1150 s.
`Cc1ccc(C(=O)NCCc2c[nH]c3ccc(Cl)cc23)cc1-n1nnc2cccnc21` showed an RP-LC retention time of 903 s.
Compound `CCn1cc(CCNC(=O)Nc2ccccc2OC)c2cccnc21` has an RP-LC retention time of 718 s.
`Cn1c(=O)c2nc(S(=O)(=O)CCC(=O)Nc3ccc(F)cc3Cl)n(C)c2n(C)c1=O` showed an RP-LC retention time of 758 s.
With `O=C1NC2(CCN(C(=O)c3ccc4c(c3)OCO4)CC2)N=C1c1cccc(Cl)c1` the RP-LC retention time was 835 s.
`CCCc1cc(C2CCCN2C(=O)Nc2cccc(C)c2)no1` (centres undefined) gave an RP-LC retention time of 945 s.
`COc1cccc(CN2CCC(N3CC4(CCCCC4)C3c3ccccc3)CC2)c1OC` (centres undefined) showed an RP-LC retention time of 624 s.
Compound `O=C(NCc1cccs1)C1CCN(S(=O)(=O)c2cc(C(=O)N3CCCCCC3)cs2)CC1` has an RP-LC retention time of 861 s.
`COc1ccc(-n2nnc(C(=O)N3CCOCC3)c2C)cc1Cl` gave an RP-LC retention time of 684 s.
`Cc1cccc(S(=O)(=O)N2CCc3c(c(CN4CCCC4)nn3C)C2)c1` showed an RP-LC retention time of 810 s.
Compound `O=C(O)c1nnn(-c2cccc(Br)c2)c1C(F)(F)F` has an RP-LC retention time of 836 s.
In the case of `CCN1C(=O)c2ccccc2Oc2ccc(C(=O)NCCc3ccc(Cl)cc3)cc21`, the RP-LC retention time was 998 s.
In the case of `CCOC(=O)c1nc(Nc2ccc(F)cc2F)c2ccccc2n1`, the RP-LC retention time was 845 s.
`N#Cc1ccc(C(=O)N2CCN(c3cc(-c4ccc(F)cc4)[nH]n3)CC2)cc1` gave an RP-LC retention time of 767 s.
Work on `CCOc1ccc(-n2c(N3CCN(C)CC3)nc3cc(C(=O)OC)ccc3c2=O)cc1` yielded an RP-LC retention time of 645 s.
Work on `CCc1ccc2oc(C(=O)NCC(c3ccccc3OC)N(C)C)cc(=O)c2c1` (centres undefined) yielded an RP-LC retention time of 659 s.
`COC(=O)Nc1ccc2[nH]cc(CCNC(C)=O)c2c1` showed an RP-LC retention time of 673 s.
For `CCc1noc(COC2CCCN(C(=O)Cn3ccnc3)C2)n1` (centres undefined), the RP-LC retention time was 586 s.
For `CC(=O)Nc1ccc2c(c1)CN(C(=O)c1ccc(F)cc1F)C(C(=O)N(C)C)C2` (centres undefined), the RP-LC retention time was 661 s.
Work on `COc1ccc(-c2nc3ccccn3c2Nc2ccc(C)cc2)cc1` yielded an RP-LC retention time of 701 s.
Compound `CCOc1ccc(S(=O)(=O)N2CCCC(C(=O)NCCc3ccc(OC)c(OC)c3)C2)cc1` (centres undefined) has an RP-LC retention time of 884 s.
`Cc1nn(C2CCS(=O)(=O)C2)c(C)c1N1CCN(C(=O)C(C)Oc2ccccc2)CC1` (centres undefined) showed an RP-LC retention time of 731 s.
For `O=C(CCSc1ccc(F)cc1)Nc1nc2c(s1)CCC2`, the RP-LC retention time was 878 s.
For `CCOC(=O)c1ccc(NC(=O)C2CCN(S(=O)(=O)c3cn(C(C)C)cn3)CC2)cc1`, the RP-LC retention time was 789 s.
For `CCCn1c(-c2cccc(C(=O)N3CCC4(CC3)OCCO4)c2)nc2cccnc21`, the RP-LC retention time was 684 s.
In the case of `CCOC(=O)Cc1csc(NC(=O)C2CCN(c3cc(-n4ccnc4)ncn3)CC2)n1`, the RP-LC retention time was 576 s.
With `COc1ccc(-n2ccc(=O)c(-c3nc(-c4ccccc4Br)no3)n2)cc1` the RP-LC retention time was 908 s.
`Cc1nn2c(CNC(=O)C(C)Oc3cccc(Cl)c3)c(C)nc2s1` (centres undefined) showed an RP-LC retention time of 676 s.
`Cc1ccc(-c2csc(Nc3ccccn3)n2)cc1` showed an RP-LC retention time of 918 s.
`CN(C)CCn1nnc2cc(-c3noc(-c4ccccc4)n3)ccc21` gave an RP-LC retention time of 651 s.
`Cn1c(C(=O)Nc2ccc(N3CCOCC3)cc2)cc2c1CCN(Cc1ccccc1)C2` gave an RP-LC retention time of 618 s.
`CC(C)N1CCC(OCCCNC(=O)CN2CCCc3nc(C4CC4)ncc3C2=O)CC1` showed an RP-LC retention time of 576 s.
For `C=CCn1c(C)c(CC(=O)NCCOC)c(=O)n2nc(-c3ccc(C)cc3)nc12`, the RP-LC retention time was 732 s.
In the case of `CCCn1cnc2ccc(-c3noc(Cc4cccs4)n3)cc21`, the RP-LC retention time was 750 s.
Compound `COc1cccc(NC(=O)C2CCN(S(=O)(=O)c3ccc4c(c3)sc(=O)n4C(C)C)CC2)c1` has an RP-LC retention time of 960 s.
For `Cc1nc(-c2cn(C)c3ncccc23)sc1C(=O)Nc1ccc(F)cc1F`, the RP-LC retention time was 940 s.
`O=C(NCc1cccs1)c1nc2ccccn2c1-c1ccccc1` gave an RP-LC retention time of 853 s.
For `CC(=O)N1CCc2cc(N3CC(C(=O)Nc4cccc(OC(F)(F)F)c4)CC3=O)ccc21` (centres undefined), the RP-LC retention time was 806 s.
With `Cc1ccc(C(=O)Nc2cnc(-c3ccc(Cl)cc3)nc2)s1` the RP-LC retention time was 1130 s.
In the case of `O=C(COc1ccc(Cl)cc1)Nc1nc(-c2ccc(Cl)cc2)cs1`, the RP-LC retention time was 1190 s.
Work on `COc1ccccc1CCNC(=O)CSc1ccc(-c2cccs2)nn1` yielded an RP-LC retention time of 802 s.
In the case of `Cc1ccc(CNC(=O)C2CCN(C(=O)C3Sc4ccccc4NC3=O)CC2)cc1` (centres undefined), the RP-LC retention time was 818 s.
In the case of `CCOc1cc(=O)n2c(c1C(=O)Nc1ccc(C(=O)OC)cc1)CCCC2`, the RP-LC retention time was 707 s.
With `O=C(Nc1cccc(Cl)c1)Nc1ccc2nncn2c1` the RP-LC retention time was 735 s.
Work on `COC(=O)c1cc(S(=O)(=O)N2CCCC2C(=O)N2CCN(c3cccc(Cl)c3)CC2)cn1C` (centres undefined) yielded an RP-LC retention time of 929 s.
`CC(C)S(=O)(=O)N1CCOc2ccc(NC(=O)C3CC3)cc2C1` gave an RP-LC retention time of 757 s.
With `CC(=O)N1CCC(C(=O)Nc2nc(C(C)(C)C)cs2)CC1` the RP-LC retention time was 731 s.
Work on `CC(C)n1cc(S(=O)(=O)N2CCN(c3ccccc3)CC2)c2cccnc21` yielded an RP-LC retention time of 1070 s.
Work on `COc1ccc(Cl)cc1C(=O)N1CCN(C2=NC=CN3CC(C)N=C23)CC1` (centres undefined) yielded an RP-LC retention time of 578 s.
Work on `COc1ccc(N2C(=O)N[C@@H]3C[C@]2(C)Oc2ccc(C)cc23)c(OC)c1` yielded an RP-LC retention time of 870 s.
`O=C(Nc1nnc(C2CC(=O)N(c3ccccc3)C2)o1)c1ccccc1Br` (centres undefined) showed an RP-LC retention time of 709 s.
With `COc1ccc(NC(=O)CN2C(=O)c3ccccc3C2=O)c2ccccc12` the RP-LC retention time was 782 s.
`COCCN1CCC(N2CCN(S(=O)(=O)c3cccc(Br)c3)CC2)C1=O` (centres undefined) gave an RP-LC retention time of 612 s.
For `CCn1cnc(S(=O)(=O)N2CCC(C(=O)NCc3ccc(OC(C)C)cc3)CC2)c1`, the RP-LC retention time was 749 s.
For `Cc1cccc(CNC2=NCCNC23CCN(S(=O)(=O)c2ccc4c(c2)CCCC4)CC3)c1`, the RP-LC retention time was 854 s.
For `CC(C)C(=O)NCCc1csc(C2CCCN(C(=O)C(C)(C)C)C2)n1` (centres undefined), the RP-LC retention time was 734 s.
Compound `Cc1[nH]c(C(=O)N2CCCC(C(=O)NCc3ccc4c(c3)OCO4)C2)c(C)c1C(=O)OC(C)C` (centres undefined) has an RP-LC retention time of 842 s.
`CN1CCN(C(=O)C2CCN(S(=O)(=O)c3cc(-c4noc(C5CCC5)n4)cs3)CC2)CC1` showed an RP-LC retention time of 672 s.
Work on `O=C(Cc1cc(-c2ccc3c(c2)OCCO3)on1)N1CCN(c2ccccc2F)CC1` yielded an RP-LC retention time of 895 s.
For `Cc1cc2c(cc1S(=O)(=O)N1CCCC1C(=O)NC1CCCCCC1)OC(C)C(=O)N2` (centres undefined), the RP-LC retention time was 834 s.
Compound `O=C(Cn1c(=O)c(=O)n(Cc2ccccc2)c2ncccc21)NCc1ccccn1` has an RP-LC retention time of 643 s.
In the case of `CCOc1ccc(N2CCCCn3c2nc2c3c(=O)n(CCOC)c(=O)n2C)cc1`, the RP-LC retention time was 853 s.
`Cc1nc2cc(N3CCCC(C(=O)N4CCN(c5ccccn5)CC4)C3)cnc2nc1C` (centres undefined) showed an RP-LC retention time of 581 s.
`CC1Oc2ccc(-c3csc(NC(=O)C(C)(C)C)n3)cc2NC1=O` (centres undefined) gave an RP-LC retention time of 856 s.
In the case of `CCC(C)NC(=O)c1cnn(-c2cc(-c3nc(C4CC4)no3)ccn2)c1C` (centres undefined), the RP-LC retention time was 973 s.
In the case of `Cc1cc2nn(CC(=O)Nc3ccc(Br)cc3F)c(=O)n2c(-c2ccc(F)cc2)n1`, the RP-LC retention time was 952 s.
With `CCOC(=O)c1cc2c(cn1)[nH]c1ccccc12` the RP-LC retention time was 691 s.
`CC(C)n1c(=O)c(NCCCc2ccccc2)nc2ccncc21` showed an RP-LC retention time of 707 s.
In the case of `CCCC1CCC(C(=O)Nc2ccc3nc(N4CCN(c5ncccn5)CC4)cc(C)c3c2)CC1` (centres undefined), the RP-LC retention time was 878 s.
`COc1ccc(CNC(=O)C2CC(=O)N(c3n[nH]c4cccc(F)c34)C2)cc1OC` (centres undefined) gave an RP-LC retention time of 661 s.
For `Cc1c(Cl)cccc1NC(=O)N1CCCC1c1nncn1-c1ccccc1` (centres undefined), the RP-LC retention time was 738 s.
For `Cc1ccc(-c2nc(-c3ccc4oc(C)nc4c3)no2)c(C)c1`, the RP-LC retention time was 1310 s.
In the case of `O=C(NCc1nc(-c2ccc(N3CCCC3)cc2)no1)c1ccco1`, the RP-LC retention time was 889 s.
`C=CCNC(=O)C1CCN(C(=O)Nc2ccc(NC(=O)Nc3ccccc3F)cc2)CC1` showed an RP-LC retention time of 710 s.
With `O=C(c1c2c(nc3ccccc13)C(=O)N(C1CCCCC1)C2)N1CCN(c2ccccn2)CC1` the RP-LC retention time was 643 s.
For `CC(=O)Nc1cccc(C2=NN(C(C)=O)C(c3cccs3)C2)c1` (centres undefined), the RP-LC retention time was 685 s.
In the case of `Cc1nc(N2CCN(c3ncccn3)CC2)nc2c1C(=O)CC(/C=C/c1ccccc1)C2` (centres undefined), the RP-LC retention time was 1290 s.
`COc1ccccc1-c1noc(C2CCCN2C(=O)c2ccc(C)s2)n1` (centres undefined) showed an RP-LC retention time of 996 s.
`CCCn1ncc(N2CCC(C(=O)N(C)Cc3cn(C)nc3C)CC2)cc1=O` showed an RP-LC retention time of 619 s.
For `CCOc1ccc(CC(=O)Nc2ccc(-c3nc(-c4ccccc4)co3)cc2)cc1OCC`, the RP-LC retention time was 1150 s.
Work on `CCOC(=O)N1CCN(S(=O)(=O)c2ccc(OCC)cc2OCC)CC1` yielded an RP-LC retention time of 858 s.
`N#Cc1cccc(NC(=O)Cn2cccc2-c2nc(-c3ccc4c(c3)OCO4)no2)c1` showed an RP-LC retention time of 924 s.
